“And” between values parts separate entries of the source, which are not always exact repeats. Identical values can stand only once. Records with an inconclusive call do not appear. The source made the active and inactive calls. No rule for the calls is given here.
test system: Toxoplasma gondii growth in host cells, no IFN-gamma; assay: compound activity on host-cell Toxoplasma growth – dose response (AID 1259420);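 also: host cells were HeLa; final incubation lasted 72 hours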

Compound	AC50
O=C(C[C@@H]1CC[C@@H]2[C@H](COC[C@H](O)CN2Cc2ccc3c(c2)OCO3)O1)N1CCCCC1	> 39 µM (inactive)
Cc1cnn(C(C)C(=O)N2CCc3[nH]nc(-c4ccc(F)c(F)c4)c3C2)c1 (centres undefined)	> 39 µM (inactive)
Cc1cccc(S(=O)(=O)N2CC[C@@H]3[C@H](CO)Nc4ccc(-c5ccccc5F)cc4[C@@H]32)c1	17.2 µM
COCCC(=O)C1Cc2nc(-c3ccccc3)sc2N1CC1CC1 (centres undefined)	25.2 µM
COc1cc([C@@H]2c3cc4c(cc3C(OC3O[C@@H]5COC(C)O[C@H]5[C@H](O)[C@H]3O)C3COC(=O)[C@@H]32)OCO4)cc(OC)c1O (some centres undefined)	23.5 µM
O=C(Cc1ccccc1)N1CC(=O)N2[C@H](CO)[C@@H](c3ccc(-c4ccc(F)cc4)cc3)[C@@H]2C1	19.2 µM
C=C(C)[C@@H]1CC[C@]2(C(=O)O)CC[C@]3(C)[C@H](CC[C@@H]4[C@@]5(C)CC[C@H](O)C(C)(C)[C@@H]5CC[C@]43C)[C@@H]12	26.9 µM
COc1cccc(CNC(=O)c2cc3c(s2)CCN3C(=O)c2ccc(F)cc2)c1	2.74 µM
COc1ccccc1NC(=O)N1CCCCN2[C@H](CO)[C@H](c3ccc(-c4cccc(C#N)c4)cc3)[C@@H]2C1	33.7 µM
CCc1ccc(S(=O)(=O)N2CCC3(CCCN(Cc4c(C)noc4C)C3)C2)cc1 (centres undefined)	35.4 µM
Cc1ccc(S(=O)(=O)N2CC[C@@H]3[C@H]2c2cc(-c4cccc(C(=O)N(C)C)c4)ccc2N[C@@H]3CO)cc1	30.1 µM
O=C(C[C@H]1C[C@@H]2CN(Cc3ccccc3)C[C@H]2O1)N1CCCCO1	> 39 µM (inactive)
C[C@H](NC(=O)C[C@H]1CC[C@@H]2[C@@H](COc3ccc(NS(=O)(=O)c4ccc(Cl)cc4)cc3C(=O)N2C)O1)c1ccccc1	13.7 µM and 36.1 µM
COc1ccc(CN2CCO[C@H]3[C@H]2CC[C@H]3OCCCn2cccn2)cc1	> 39 µM (inactive)

Source: PubChem BioAssay AID1259420 (Broad Institute, 2018)
